Assays:
[1] = octanol saline (1:1) partition; assay type: physicochemical; conditions: read-out: Partition Coefficients (converted)
From the text: Partition coefficients relate to octanol saline (1:1) partition

[2] = selective extraction and transport from an equimolar mixture of six bivalent metal ions through a CHCl3 bulk membrane (U-tube, ion chromatography)
Method: Several of the ion binders, when incorporated into bulk membranes, selectively extract and transport a specific metal ion from a plurality of cations. An example is the quantitative separation of Cu^2+ from a mixture of six two-valent metal ions. This is illustrated by the quantitative removal of Cu^2+ from an equimolar mixture (10 mM each) of Pb^2+, Cu^2+, Cd^2+, Co^2+, Zn^2+ and Ni^2+ in water.

[3] = removal of Zn^2+ from an equimolar mixture of Zn^2+ and Cd^2+ (ion chromatography); conditions: 20 mM each Zn^2+ and Cd^2+; 3.0 mM carrier in chloroform
[4] = removal of Cu^2+ from an equimolar mixture of Cu^2+ and Fe^3+; conditions: 3 mM each Cu^2+ and Fe^3+, 6 mM citric acid, pH 6.8 with KOH; 4.5 mM carrier in chloroform; receiver 3 mM DTPA at pH 2
Method: A third example is the removal of Cu^2+ from an equimolar mixture of Cu^2+ and Fe^3+ (3 mM each in the presence of 6 mM citric acid titrated to pH 6.8 with KOH) with less than 10% contamination of Fe^3+, by using a carrier (n=2, m=0, q=0, R^1 =CH3) 4.5 mM concentration in chloroform and in the receiver phase 3 mM DTPA at pH2.

| SMILES | logP [1] | also measured |
| --- | --- | --- |
| CN(O)C(=O)COCC(C)(C)COCC(=O)N(C)O [q = 0, n=1, R^1=M, R^2=Me, R^3=Me] | 0.352 |  |
| CCOC(=O)CCN(O)C(=O)COCC(C)(C)COCC(=O)N(O)CCC(=O)OCC | 0.5 |  |
| CCCC(C)(COCC(=O)N(C)O)COCC(=O)N(C)O [q = 0, n=1, R^1=Me, R^2=Me, R^3=Pr] | 0.29 |  |
| CC(C)CC(NC(=O)COCC(C)(C)COCC(=O)NC(CC(C)C)C(=O)N(C)O)C(=O)N(C)O (stereo not drawn) | 0.568 |  |
| CC(C)C[C@H](NC(=O)CCOCC(C)(C)COCCC(=O)N[C@@H](CC(C)C)C(=O)N(C)O)C(=O)N(C)O | 1.2 | removal of Cu^2+ from equimolar mixture ([2]; 10 mM each of Pb^2+, Cu^2+, Cd^2+, Co^2+, Zn^2+, Ni^2+ in water, 0.3 mM carrier in CHCl3, receiver 0.1 M H2SO4): quantitatively removed; contamination by other metals ([2]; 10 mM each of six metal ions, 0.3 mM carrier in CHCl3, receiver 0.1 M H2SO4, DIONEX ion chromatography): without a trace of contamination by other metals; metal content of receiver arm after extraction ([2]; after 160 hours, equimolar mixture of six cations (FIG. 1B)): containing only Cu^2+; contamination of Cd^2+ on removal of Zn^2+ [3]: without any contamination of Cd^2+ |
| CC(NC(=O)COCC(C)(C)COCC(=O)NC(C)C(=O)N(C)O)C(=O)N(C)O (stereo not drawn) [q = 1, n=1, R=Me, R^1=Me, R^2=Me, R^3=Me] | 0.29 |  |
| CN(O)C(=O)CCOCC(C)(C)COCCC(=O)N(C)O [q = 0, n=2, R^1=Me, R^2=Me, R^3=Me] | -0.0862 | contamination of Fe^3+ on removal of Cu^2+ [4]: less than 10% |

From patent US5149845A, “Extractants for the separation of transition and related metal ions” (Yeda Research and Development Co. Ltd., priority 1988, dated 1992)
